Marks after values point to notes of the source that are not given here.
How the values were obtained:
[1] = system: Escherichia coli 0157:H7 ATCC 700728; assay: Minimal Inhibitory Concentration test (OD) with bactericidal/static check; assay type: cell-based; conditions: for Bactericidal or Static check of optically clear MIC tubes, Escherichia coli 0157:H7 ATCC 700728: 0 CFU/ml needed for bactericidal
Experimental: (§1) Sterile, 12×75 mm plastic test tubes were used to perform the test. 1 mL of the test compositions were placed in the appropriate labeled tubes. 1 mL of each adjusted bacterial inoculum was added to each appropriate labeled tube in the dilution series and mixed. The tubes were closed with loose caps. The tubes were then incubated at 37° C. for 24 hours with the exception of the Campylobacter tubes, which were incubated microaerophilically at 42° C. for 48 hours. At the end of the incubation phases the tubes were examined for turbidity. All optically clear tubes were plated to agar plates to determine if the test article was bactericidal or bacteriostatic. A product was considered to be “bactericidal” if less than 3 CFU were detected (Clear tubes with a few CFU), and “bacteriostatic” if greater the 3 CFU were detected (Clear tubes and growth detected).
(§2) The tubes were examined for turbidity, indicating growth of the organism. […] The lowest concentration of the agent that inhibits growth of the organism, as detected by lack of visual turbidity (matching the negative control) was designated the minimum inhibitory concentration (MIC).
(§3) Additional experiments were performed to determine bactericidal and bacteriostatic effects of preparation made from wine lees from different varietals, effects of aging of preparations on bactericidal and bacteriostatic effectiveness, and to compare effectiveness to conventional antibiotic treatment. Methods were as described above for testing bacteriostatic and bactericidal effects. Preparations were tested against Salmonella enterica (ATCC 8759) and E. coli 0157:H7 (ATCC 700728).
(§4) The following preparations were tested: a lees preparation from Chardonnay grapes that had not been enzymatically treated and had been prepared approximately 2 months before testing (CH16), a lees preparation from Pinot Noir grapes that had not been enzymatically treated and had been prepared approximately 14 months before testing (PNC15), a lees preparation from Pinot Noir grapes that had not been enzymatically treated and had been prepared approximately 2 months before testing (PNC16), a lees preparation from Cabernet Franc grapes that had been enzymatically treated and had been prepared approximately 2 months before testing (CFE16), CELMANAX™ (SCP) (hydrolyzed yeast), and salinomycin, 0.005% solution (antibiotic).

[2] = system: Salmonella enterica ATCC 8759; assay: as above; assay type: cell-based; conditions: 0 CFU/ml needed for bactericidal
Experimental: as §1, §2, §3, §4

[3] = In vivo calf study: body weight gain; design: species or system Holstein calves
Experimental: An in vivo study was performed to compare effects of lees-based preparations as disclosed herein to conventional commercially available product yeast fermentation product and Decoquinate on performance and health of neonatal Holstein calves. Lees was prepared as described above (a lees preparation from Pinot Noir grapes that had not been enzymatically treated and had been prepared approximately 6 months before testing (PNC16)). PNC16 was compared with […]) (hydrolyzed yeast) and an antibiotic, DECCOX®-M manufactured by Zoetis Inc., Decoquinate. The study was conducted at Spruce Haven Farms, Union Springs, N.Y., a commercial dairy consisting of 1,800 mature cows. There were thirty calf hutches available to conduct the trial that were aligned in one row. The study consisted of thirty female Holstein calves. As calves were born they were successively placed on one of four treatments until 28 calves were assigned, then the remaining 2 calves were assigned to treatment 2 and 3 respectively. […] Calves were housed in fiberglass hutches (4'×8') with an outside run (4'×6') with straw bedding inside the hutch. Within 2 hr. of birth, calves were offered 4 lb. of colostrum. Thereafter, pasteurized whole milk was offered twice daily (08:00 and 16:00 h) and water and dry calf starter was available at all times in removable buckets. During the morning feeding the liquid (CEL or PNC16) or dry (22.7 mg) test articles were dissolved in the milk. Calves body weights were recorded when moved into the hutches and again at 21 d of life.

[4] = In vivo calf study: hematology and haptoglobin; design: species or system Holstein calves; conditions: 10 day old calves
Experimental: An in vivo study was performed to compare effects of lees-based preparations as disclosed herein to conventional commercially available product yeast fermentation product and Decoquinate on performance and health of neonatal Holstein calves. Lees was prepared as described above (a lees preparation from Pinot Noir grapes that had not been enzymatically treated and had been prepared approximately 6 months before testing (PNC16)). PNC16 was compared with […]) (hydrolyzed yeast) and an antibiotic, DECCOX®-M manufactured by Zoetis Inc., Decoquinate. The study was conducted at Spruce Haven Farms, Union Springs, N.Y., a commercial dairy consisting of 1,800 mature cows. There were thirty calf hutches available to conduct the trial that were aligned in one row. The study consisted of thirty female Holstein calves. As calves were born they were successively placed on one of four treatments until 28 calves were assigned, then the remaining 2 calves were assigned to treatment 2 and 3 respectively. […] Blood samples were collected via jugular vein-puncture before the pm milk feeding on day 10 of life. Samples were collected in heparinized vacutainers. Whole blood was analyzed for hematology: red blood count, hematocrit, hemoglobin, mean cell volume, mean cell hemoglobin, mean cell hemoglobin concentration, red cell distribution width, reticulocyte, white blood cell: neutrophil, lymphocyte, monocyte, eosinophil, basophil, platelet, mean platelet volume, platelet, distribution width and procalcitonin. Plasma was obtained by centrifugation at 1,500×g for 15 min. Plasma samples were frozen (-40° C.) and shipped to the Michigan State University (DCPAH) laboratory for haptoglobin analysis.

Cryptosporidium oocytes = assay: In vivo calf study: fecal shedding of Cryptosporidium oocytes; design: species or system Cryptosporidium (in Holstein calves)
Experimental: (§5) An in vivo study was performed to compare effects of lees-based preparations as disclosed herein to conventional commercially available product yeast fermentation product and Decoquinate on performance and health of neonatal Holstein calves. […] PNC16 was compared with CELMANAX™ (SCP) (hydrolyzed yeast) and an antibiotic, DECCOX®-M manufactured by Zoetis Inc., Decoquinate.
(§6) The study was conducted at Spruce Haven Farms, Union Springs, N.Y., a commercial dairy consisting of 1,800 mature cows. There were thirty calf hutches available to conduct the trial that were aligned in one row. The study consisted of thirty female Holstein calves. As calves were born they were successively placed on one of four treatments until 28 calves were assigned, then the remaining 2 calves were assigned to treatment 2 and 3 respectively.
(§7) Fecal samples (˜10-20 g) were obtain via digital stimulation from each calf on day 7, 14 and 21 of life. Samples were sent to the Cornell Diagnostic Laboratory for zinc sulfate floatation to determine type and degree of fecal shedding. Body temperatures were take just prior to fecal collections on day 7, 14 and 21 of life. Fecal consistency scores: were recorded for each calf daily using the following scale: 1=soft, solid consistency, no fluid, 2=semi-solid, mostly solid, 3=runny: semi solid, mostly fluid, 4=watery, all fluid 5=watery with blood.

Eimeria species = assay: In vivo calf study: fecal shedding of Eimeria species; design: species or system Eimeria (in Holstein calves); conditions: day 21 of age (FIG. 4); Control 71.5%
Experimental: as §5, §6, §7

[5] = In vivo calf study: rectal temperature and fecal consistency score; design: species or system Holstein calves
Experimental: as §5, §6, §7

cryptosporidiosis = conditions: Moore (2003); cited from earlier work
[6] = 20 Mg/ml (ABX: salinomycin 0.005% solution)
[7] = 40 Mg/ml (ABX: salinomycin 0.005% solution)

Structure (SMILES): CC[C@@H](C(=O)[C@@H](C)[C@@H](O)[C@H](C)[C@@H]1O[C@@H]([C@@H](CC)C(=O)O)CC[C@@H]1C)[C@H]1O[C@]2(C=C[C@@H](O)[C@]3(CC[C@@](C)([C@H]4CC[C@](O)(CC)[C@H](C)O4)O3)O2)[C@H](C)C[C@@H]1C [ABX, salinomycin]
- Turbidity Reading (OD), Escherichia coli 0157:H7 ATCC 700728 [1]: .075^c OD
- Bactericidal or Static check of optically clear MIC tubes, Escherichia coli 0157:H7 ATCC 700728 [1, 6]: 950 CFU/ml
- Bactericidal or Static check of optically clear MIC tubes, Escherichia coli 0157:H7 ATCC 700728 [1, 7]: 950 CFU/ml
- Bactericidal or Static check of optically clear MIC tubes, Salmonella enterica ATCC 8759 [2, 6]: 50,000 CFU/ml
- Bactericidal or Static check of optically clear MIC tubes, Salmonella enterica ATCC 8759 [2, 7]: 50,000 CFU/ml

Structure (SMILES): CCCCCCCCCCOc1cc2c(O)c(C(=O)OCC)cnc2cc1OCC [DECCOX ®, Decoquinate]
- Birth wt ([3]; baseline at birth, Control 40.4): 40.2 kg
- Body wt gain ([3]; birth through day 21, Control 6.8): 7.3 kg
- ADG ([3]; birth through day 21, Control .32): .35 kg/day
- Day 21 wt ([3]; day 21 of life, Control 47.1): 47.6^b kg
- Basophil (Baso) ([4]; Control 0.01): 0.00 K/ul
- Monocyte (Mono) ([4]; Control 0.02): 0.05 K/ul
- Eosinophil (Eosin) ([4]; Control 0.03): 0.08 K/ul
- Neutrophil (NEUT) ([4]; Control 3.7): 5.1 K/ul
- Lymphocyte (LYMPH) ([4]; Control 4.2): 2.4 K/ul
- Mean Platelet Volume (MPV) ([4]; Control 5.5): 5.6 fL
- Platelet Distribution Width (PDW) ([4]; Control 6.34): 7.72^a fL
- Reticulocyte (Ret) ([4]; Control 7.13): 1.49^b K/ul
- Red Blood Count (RBC) ([4]; Control 7.4): 7.1 M/uL
- White Blood Cell (WBC) ([4]; Control 7.96): 7.67^b K/ul
- Hemoglobin (HBG) ([4]; Control 9.4): 8.9 g/dL
- Mean Cell Hemoglobin (MCH) ([4]; Control 12.6): 12.4 pg
- Hematocrit (HCT) ([4]; Control 29.8): 28.5%
- Red Cell Distribution Width (RDW) ([4]; Control 31.4): 30.7%
- Mean Cell Hemoglobin Concentration (MCHC) ([4]; Control 31.5): 31.4 g/dL
- Mean Cell Volume (MCV) ([4]; Control 40.0): 39.8 fL
- Platelet (Plt) ([4]; Control 654.7): 579.8^b K/ul
- Neutrophil/Lymphocyte Ratio (NLR) ([4]; Control .87): 2.11^a
- Percentages Baso ([4]; percent of white cells, Control 0.19): 0.00%
- Percentages Mono ([4]; percent of white cells, Control 0.21): 0.63%
- Percentages Eosin ([4]; percent of white cells, Control 0.34): 0.98%
- Percentages Neutrophil ([4]; percent of white cells, Control 48.38): 66.63^a %
- Percentages Lymphocyte ([4]; percent of white cells, Control 50.87): 31.75^b %
- Haptoglobin (Hp) ([4]; plasma, Control 24.13): 64.5 µg/mL
- Cryptosporidium Oocytes/g of feces (Cryptosporidium oocytes; Day 1, Control 0): 0 Oocytes/g of feces
- % of calves shedding Cryptosporidium oocytes (Cryptosporidium oocytes; Day 1, Control 0.0): 0.0%
- % of calves shedding Cryptosporidium oocytes (Cryptosporidium oocytes; Day 7, Control 71.4): 28.6%
- Cryptosporidium Oocytes/g of feces (Cryptosporidium oocytes; Day 7, Control 85638): 2^b Oocytes/g of feces
- % of calves shedding Cryptosporidium oocytes (Cryptosporidium oocytes; Day 14, Control 85.0): 100.0%
- Cryptosporidium Oocytes/g of feces (Cryptosporidium oocytes; Day 14, Control 14153): 209473^a Oocytes/g of feces
- % of calves shedding Cryptosporidium oocytes (Cryptosporidium oocytes; Day 21, Control 28.6): 28.6%
- Cryptosporidium Oocytes/g of feces (Cryptosporidium oocytes; Day 21, Control 368): 11^b Oocytes/g of feces
- Percent of calves shedding Eimeria (Eimeria species): 0%
- Fecal consistency score (FCS) ([5]; between day 12 and 17 d of life, scale 1-5, Control 2.3): 2.4
- Rectal temperature ([5]; day 14, comparison in words): higher (p<005) than PNC16
- clinical benefit as preventative treatment for cryptosporidiosis (cryptosporidiosis): no clinical benefit
